# Laboratory results reported in article PMC7870626, “Neurotoxicity and underlying cellular changes of 21 mitochondrial respiratory chain inhibitors” (Archives of Toxicology, 2021).
# Where two headings read alike, the source gives them in different places.
# Tests used:
# [1] = system: LUHMES cells; assay: NeuriTox test: neurite area and viability, 24 h; format: cell-based, human; details: for EC25: Homo sapiens
# Procedure: (§1) The NeuriTox test was performed as previously described (Delp et al. [2018b]; Krug et al. [2013a]; Stiegler et al. [2011]). Briefly, cells differentiated for 48 h were re-seeded into 96-well plates at a density of 100,000 cells/cm^2 in DM without cAMP and GDNF, and treated 1 h after seeding for 24 h. Subsequently, multiple endpoints were determined, e.g., neurite outgrowth (i.e., NeuriTox test), resazurin reduction, intracellular ATP content, gene expression levels from TempO-Seq analysis, and proteasomal activity. For the 120 h exposure scenario, LUHMES cells were differentiated for another 3 days after reseeding before they were treated on day 5 (d5) and d7 by a half medium exchange. Endpoints were determined on d10 of differentiation.
# Image acquisition and analysis was performed as described previously (Krug et al. [2013a]; Schildknecht et al. [2013]; Stiegler et al. [2011]). In brief, cells were live-stained with 1 µg/ml Hoechst H-33342 and 1 µM calcein-AM and image acquisition was done by an automated high content imager (Cellomics, Waltham, MA, USA). Cell viability was determined as ratio of live cells (cell bodies being Calcein- and Hoechst-positive) relative to the total amount of cells (Hoechst-positive cell bodies). Neurite area was calculated by subtracting the somatic area (Hoechst-positive area plus surrounding) from the calcein-positive area.
# [2] = system: proteasome; assay: Proteasomal activity (KE3 assay) in LUHMES cells; format: cell-based, human; details: NeuriTox neurite EC25 relative to proteasomal activity EC25, LUHMES
# Procedure: Activity of the proteasome was quantified as described in (Gutbier et al. [2018b]). Briefly, after exposure, culture medium was replaced by assay buffer containing a cell-permeable proteasomal substrate (MeOSuc-Gly-Leu-Phe-AMC, 25 µM (Bachem, Bubendorf, Switzerland) in HBSS). Its AMC-fluorescence (ex: 360 nm, em: 465 nm) increases with proteasomal activity and was monitored for 90 min. Background-corrected data were used for further analysis.
# [3] = system: SH-SY5Y cells; assay: Mitochondrial membrane potential (rhodamine 123), KE2 assay; format: cell-based, human; details: for Ratios of EC25 KE4/KE2 MMP: NeuriTox neurite EC25 relative to SH-SY5Y MMP EC25
# Procedure: Cells were plated at a cell density of 29,500 cells/cm^2 and handled as described above for the neurite SH-SY5Y degeneration. On d6 of differentiation, 50% of the medium was replaced by differentiation medium containing 2 µM Rhodamine 123 (ThermoFisher). After 45 min of preloading at 37 °C with 5% CO2 in darkness, the Rhodamine 123 solution was completely removed and cells were carefully washed once with 200 µl DMEM:F12. Subsequently, 50 µl differentiation medium per well were added followed by the addition of 50 µl/well of test compounds in medium. After 24 h of exposure to the test compounds, the nuclei were stained for 30 min with 20 µL of a solution containing 20 µM Hoechst 33342, and the images were then acquired with a 10 × objective lens using the ImageXpress® Micro (Molecular Devices) high content microplate imager. Nuclei were evaluated in the DAPI channel (excitation 377 ± 50 nm, emission 447 ± 60 nm), whereas Rhodamine 123 fluorescence was detected in the FITC channel (excitation 475 ± 34 nm, emission 536 ± 40 nm). Analysis of the Hoechst 33,342 and Rhodamine 123 fluorescence was performed using the MetaXpress® Software (Molecular Devices) with the Transfluor HT plug-in and the parameters nuclei (for Hoechst-33342) and integrated granule intensity (for Rhodamine 123). Mitochondrial membrane potential (MMP) was quantified as the total fluorescence intensity of Rhodamine 123 in relation to the number of Hoechst-stained nuclei.
# [4] = system: HepG2 cells; assay: HepG2-based respirometry, total cell respiration (earlier study); details: NeuriTox neurite EC25 relative to cell respiration EC25; respirometric data from HepG2-based assays ref van der Stel et al. 2020
# [5] = system: MRC complex (cI, cII or cIII); assay: HepG2-based MRC complex assay in permeabilized cells (earlier study); format: cell-based; details: NeuriTox neurite EC25 relative to complex assay EC25 in permeabilized cells; respirometric data from HepG2-based assays ref van der Stel et al. 2020
# [6] = system: LUHMES cells; format: cell-based, human; details: 24 h, vs 0.1% DMSO; for log2FoldChange AARS: gene AARS; for log2FoldChange AASDHPPT: gene AASDHPPT; for log2FoldChange AATF: gene AATF; for log2FoldChange ABCA1: gene ABCA1; for log2FoldChange ABCA6: gene ABCA6
# Procedure: Cells were cultured and treated as described above for the NeuriTox assay. On d3, after 24 h treatment, culture medium was replaced by 33 µl/well 1 × Biospyder lysis buffer. After 15 min at room temperature, plates were sealed and frozen at -80 °C to complete lysis. Samples were analyzed at Bioclavis (Glasgow) using the TempO-Seq technique and the EU-ToxRisk v2.0 gene probe panel covering ca. 3000 genes (Yeakley et al. [2017]). All genes are listed in the supplementary excel file (containing also all gene regulations). Briefly, a 50 bp fragment of the target gene was amplified. The amplification step also introduced sample-specific barcodes. This allowed pooling of all samples and standard next-generation sequencing of the ensemble. Afterward, adapters were used to allocate the sequenced fragments to the correct samples. Finally, the alignment of all sequenced fragments (FASTQ files) for each sample to the collection of reference 50 bp oligonucleotides was performed for the quantification of reads per gene, also known as the read count values. In a pre-filtering step, samples with a total count < 0.2 million and genes with an average count < 1.5 were removed.
# To correct for both read depth and RNA composition, the DESeq2′s median of ratios normalization was applied. The analysis of differentially expressed genes (DEG) of each treatment against the control group was done by the Wald test implemented in DESeq2/R (Love et al. [2014]), including an FDR correction for p-adjusted ≤ 0.05. […] A curve was fit through these concentration–response data to obtain EC10DEG. For comparability, all DEG data were normalized to a positive control. […] The EC10DEG was calculated using an established online open access BMC calculator (BMCeasy) (Krebs et al. [2020]).
# [7] = system: LUHMES cells; assay: Intracellular ATP content after NeuriTox exposure; format: cell-based; details: Homo sapiens; NeuriTox exposure scheme, 24 h; read-out: LUHMES 24 h EC25 ATP (converted)
# Procedure: as §1
# Plates from the NeuriTox test were further used after imaging for determination of alternative endpoints. Intracellular ATP was determined as described earlier (Delp et al. [2019]). In brief, CellTiterGlo 2.0 assay mix (Promega) containing luciferase was added after imaging, and luminescence was recorded. For the determination of resazurin reduction, a 10 × resazurin stock solution was added after imaging to the medium (final resazurin concentration 2 µg/ml) (Delp et al. [2018a]). After 60 min incubation, resazurin fluorescence was recorded (ex: 530 nm, em: 590 nm). Background-corrected data was used for further analysis.
# [8] = system: U2OS cells; assay: cells; format: cell-based; details: Homo sapiens; U2OS osteosarcoma cells, 24 h, luminescence of constitutively expressed luciferase; read-out: Cytotox EC25 U2OS (converted)
# Procedure: A cell suspension of 100,000 cells/ml was prepared in assay medium, and white 384-well plates were filled with 30 µl/well cell suspension. Twenty-four hours after seeding, a dilution series of test compound, as well as positive and negative controls, were added to the cells. After 24 h exposure, the medium was removed, and 10 µl of Triton X-100 lysis buffer was added to each well. The luminescent signal was determined in a luminometer by injecting BDS Illuminate Mix and measuring the light emission. The Cytotox CALUX cell line constitutively expresses a high level of luciferase protein; the light emission is therefore proportional to the cell number of live cells, and its decrease can be used as measure of cytotoxicity. The light emission generated by cells exposed to vehicle control was set to 100%, and the luminescence of cells exposed to the positive control toxicant tributyltin acetate [100 µM] was set to 0%. The light output of the cells exposed to different concentrations of test compounds was scaled accordingly.
# [9] = NeuriTox test, neurite outgrowth impairment, LUHMES 24 h
# [10] = NeuriTox exposure scheme, 24 h, read-out: LUHMES 24 h EC25 NA (neurite area) (converted)
# [11] = NeuriTox exposure scheme, 24 h, read-out: LUHMES 24 h EC25 V (viability) (converted)
SMILES,Ratios of EC25 KE4/KE2 MMP [3],Ratios of EC25 KE4/KE1 total respiration [4],Ratios of EC25 KE4/KE1 complex assay [5],"EC25 [1, 10] [µM]","EC25 [1, 11] [µM]",EC25 [7] [µM],EC25 [8] [µM],other results
CO/C=C(/C(=O)OC)c1ccccc1Oc1cc(Oc2ccccc2C#N)ncn1 [Azoxystrobin],9.8,10.0,4.0,,,,,"EC25 KE4 (AO) Neurite toxicity [1, 9]: 4.5 -log[M]; Ratios of EC25 KE4/KE3 proteasomal [2]: 0.9; log2FoldChange AARS ([6]; 0.10 µM): -0.16 log2; log2FoldChange AASDHPPT ([6]; 0.10 µM): 0.0857 log2; log2FoldChange AATF ([6]; 0.10 µM): -0.0134 log2; log2FoldChange ABCA1 ([6]; 0.10 µM): -0.16 log2; log2FoldChange ABCA6 ([6]; 0.10 µM): -1.97 log2"
CSC1=N[C@@](C)(c2ccccc2)C(=O)N1Nc1ccccc1 [Fenamidone],,≥ 10,,> 50.1,> 50.1,> 50.1,> 100,
CC(C)(C)c1ccc(CCOc2ncnc3ccccc23)cc1 [Fenazaquin],,40–60,≥ 800,10,15.8,10,> 100,
Cc1occc1C(=O)Nc1ccccc1 [Fenfuram],,,,> 100,> 100,> 100,> 100,
CC(C)Oc1cccc(NC(=O)c2ccccc2C(F)(F)F)c1 [Flutolanil],,,,79.4,> 100,79.4,> 100,
CO/N=C(/C(=O)OC)c1ccccc1COc1ccccc1C [Kresoxim-methyl],,≥ 10,,50.1,39.8,31.6,> 100,
CO/C=C(/C(=O)OC)c1ccccc1COc1cccc(C(F)(F)F)n1 [Picoxystrobin],4.7,63,31.6,,,,,"EC25 KE4 (AO) Neurite toxicity [1, 9]: 4.4 -log[M]; log2FoldChange AARS ([6]; 0.10 µM): -0.76 log2; log2FoldChange AASDHPPT ([6]; 0.10 µM): 1.04 log2; log2FoldChange AATF ([6]; 0.10 µM): -0.34 log2; log2FoldChange ABCA1 ([6]; 0.10 µM): -0.73 log2; log2FoldChange ABCA6 ([6]; 0.10 µM): 1.05 log2"
CC(C)(C)c1ccc(CSc2cnn(C(C)(C)C)c(=O)c2Cl)cc1 [Pyridaben],,40–60,≥ 800,63.1,> 100,79.4,> 100,
CCc1nn(C)c(C(=O)NCc2ccc(C(C)(C)C)cc2)c1Cl [Tebufenpyrad],5.6,126,1000,20,20,12.6,> 100,"EC25 ([1]; NeuriTox test, neurite outgrowth impairment, LUHMES 24 h, read-out: EC25 KE4 (AO) Neurite toxicity (converted)): 20 µM; EC25 ([3]; Homo sapiens, SH-SY5Y differentiated 6 days, treated 24 h, rhodamine-123, read-out: pEC25 MMP (concentration where MMP was reduced by 25%) (converted)): 3.16 µM; log2FoldChange AARS ([6]; 0.09 µM): -0.0653 log2; log2FoldChange AASDHPPT ([6]; 0.09 µM): 0.0475 log2; log2FoldChange AATF ([6]; 0.09 µM): 0.19 log2; log2FoldChange ABCA1 ([6]; 0.09 µM): -0.37 log2; log2FoldChange ABCA6 ([6]; 0.09 µM): 0.84 log2"
CO/N=C(/C(=O)OC)c1ccccc1CO/N=C(\C)c1cccc(C(F)(F)F)c1 [Trifloxistrobin],,≥ 10,,,,,,
